Measured values as given in patent EP2886535A1, “Novel veterinary isometamidium compositions and similar substances and uses thereof” (Ceva Sante Animale, priority 2013, dated 2015).
Read-outs that look alike come from different tables or passages of the source.

Key:
[1] = tested on: T. b. brucei; assay: In vitro drug sensitivity test on cultured bloodstream forms, 48 h; assay type: cell-based; settings: for IC50: 48 h exposure, 37 °C
Text: (§1) Les souches T. congolense et T. b. brucei (formes sanguines) ont été cultivées in vitro selon le protocole décrit par Baltz et al. (Embo. J. 1985, 4, 1273-1277) et Coustou et al. (PLOS Negl. Trop. Dis., 2010, 4, 618).
(§2) L'isométamidium a été synthétisé et a été purifié par HPLC (220 nm). L'analyse de sa structure a été confirmée par LC /MS et par RMN 1H et 13C et un degré de pureté de 99,7 % a été obtenu. L'isométamidium pur ainsi que les formulations commerciales Veridium® et Samorin® ont été dissous dans de l'eau distillée (10 mg / ml) et ont été conservés à -20°C avant utilisation.
(§3) Les trypanosomes sont ajoutés dans des plaques de culture cellulaire 96 puits incubées à 34 °C (T. congolense) ou à 37 °C (T. b. brucei) sous atmosphère de CO2 (4 %) pendant 4 heures avant l'ajout des composés qui ont été dilués en série 1/10^eme. 100 µl de chaque dilution ont été ensuite ajoutés à 100 µl de culture dans les puits (2 puits pour chaque dilution de 1 mg/ml jusqu'à 1.10^-19 mg/ml) puis le milieu est incubé à 34 °C (T. congolense) ou à 37 °C (T. b. brucei) sous atmosphère de CO2 (4 %) pendant 48 heures. Les IC50 (Concentration qui réduit de 50% la population parasitaire au bout de 48 heures de culture) ont été calculées en utilisant le logiciel de traitement de données Sigmaplot version 12.
(§4) Les souches T. congolense et T. b. brucei (formes sanguines), les différents composés et leur IC50 ont été, respectivement, cultivées in vitro, préparés et évaluées selon le protocole décrit dans l'exemple 1. Les puretés respectives pour chaque composé obtenu étaient de 97,6 % pour l'isomère bleu, 95,4% pour l'isomère rouge et 97,9 % pour le composé disubstitué.

[2] = tested on: T. congolense; assay: as above; assay type: cell-based; settings: for IC50: 48 h exposure, 34 °C; for activité trypanocide inférieure à celle des formulations commerciales: versus Veridium and Samorin, 48 h, up to about
Text: as §1, §2, §3, §4

[3] = tested on: T. congolense; assay: In vivo curative and preventive activity in infected and monthly re-infected mice; design: species or system souris femelles swiss (CD1); settings: for Nombre de souris avec une parasitemia positive: n=5; for activité curative et préventive (durée): dose 1 mg/kg
Method: La souche T. congolense est cultivée et les différents composés sont préparés selon les protocoles de culture et de préparation décrits pour les tests in vitro (Exemples 1 et 2).
Des parasites de la souche de T. congolense ont été initialement propagés dans des souris femelles swiss (CD1) âgées de 8 semaines (200 mg/kg). Ces souris sont ensuite infectés par voie intrapéritonéale avec 10^5 trypanosomes de souche T. congolense dans un volume final de 200 µl de tampon phosphate glucose (137 mM NaCl, 10 mM phosphate, […], pH 7,4, 1% glucose). Les souris sont alors traitées par les composés à tester 24 heures après l'infection (5 souris traités par composé à tester + un groupe témoin). Chaque composé testé est injecté par voie intrapéritonéale et à des concentrations de 1 et 0,1 mg/kg de poids corporel dans un volume final de 100 µl d'eau stérile. Les souris témoins non traitées reçoivent 100 µl d'eau stérile après infection. La parasitémie a été évaluée 2 fois par semaine au microscope à partir d'échantillons de sang prélevés sur la veine caudale. Afin d'évaluer la persistance des composés, les souris qui étaient parasite-négatives après un mois ont été ré-infectées avec 10^5 trypanosomes. La réinfection a été répétée après le deuxième et troisième mois à partir de l'infection initiale et du traitement si les souris infectées étaient toujours aparasitémiques (sans parasites dans le sang). La réinfection a été réalisée avec des parasites provenant de souris témoins infectées de manière chronique pour éviter une réponse immunitaire immédiate due à la présence d'anticorps homologues anti-VSG. Deux souris non-traitées (Témoin) ont été infectées à chaque infection et réinfection. Le traitement a été considéré inefficace quand plus de 2 souris sur 5 dans un groupe étaient parasite-positives.

[4] = tested on: T. congolense; settings: mice, Brown et al. 1961; purity of compounds unsatisfactory; cited from earlier work
[5] = tested on: T. congolense; settings: cattle, Finelle et al. 1963; cited from earlier work
[6] = Trypanosoma brucei, read-out: IC50
[7] = Trypanosoma congolense, read-out: IC50

Row | SMILES | IC50 [1] | IC50 [1, 6] | IC50 [2] | IC50 [2, 7] | Nombre de souris avec une parasitemia positive ([3]; dose 0.1 mg/kg i.p., 1 mois) | activité curative et préventive (durée) [3] | Nombre de souris avec une parasitemia positive ([3]; dose 1 mg/kg i.p., 1 mois) | Nombre de souris avec une parasitemia positive ([3]; dose 1 mg/kg i.p., 2 mois) | activité trypanocide in-vivo [4] | activité trypanocide inférieure à celle des formulations commerciales [2] | Nombre de souris avec une parasitemia positive ([3]; dose 0.1 mg/kg i.p., 2 mois) | Nombre de souris avec une parasitemia positive ([3]; dose 1 mg/kg i.p., 3 mois) | other results
1 | CC[n+]1c(-c2ccccc2)c2cc(N=NNc3cccc(C(=N)N)c3)ccc2c2ccc(N=NNc3cccc(C(=N)N)c3)cc21 [Composé disubstitué pur, 3,8-di-(3-m-amidinophenyltriazeno)-5-éthyl-6-phénylphénanthridium] | >1 µg/mL | > 1 µg/mL | 66,27 ± 14,37 ng/ml | 0.0663 µg/mL | 5 | pendant au moins trois mois | 0 | 0 | activité prophylactique et non curative |  |  |  | Nombre de souris avec une parasitemia positive ([3]; dose 1 mg/kg i.p., 3 mois, listed as Composé disubstitué, 1 mg/kg): 1; Nombre de souris avec une parasitemia positive ([3]; dose 1 mg/kg i.p., 3 mois, listed as composé disubstitué, 1 mg/kg): seule une souris est parasite-positive; Nombre de souris avec une parasitemia positive ([3]; dose 1 mg/kg i.p., 4 mois, listed as Composé disubstitué, 1 mg/kg): 4; Nombre de souris avec une parasitemia positive ([3]; dose 1 mg/kg i.p., 4 mois, listed as composé disubstitué, 1 mg/kg): la seule souris parasite-négative; protection / activité curative [5]: permettait de protéger les bovins contre T. congolense, mais était dépourvu de toute activité curative
2 | CC[n+]1c(-c2ccccc2)c2c(N=Nc3cccc(C(=N)N)c3)c(N)ccc2c2ccc(N)cc21 [Isomère bleu, 7-(m-amidinophényldiazo)-3,8-diamino-5-éthyl-6-phényl phénanthridinium, reference compound] | 12,01 ± 2,22 ng/ml | 0.012 µg/mL | 7,11 ± 0,76 ng/ml | 0.00711 µg/mL | 0 | n'est plus significative au bout de deux mois | 0 | 4 | activité trypanocide curative | ≤ 10 fois | 5 |  | protection des souris d'une infection (durée) ([3]; dose 0,1 mg/kg): ne sont actifs que pendant un mois
3 | CC[n+]1c(-c2ccccc2)c2cc(N)ccc2c2ccc(N=NNc3cccc(C(=N)N)c3)cc21 [Isomère rouge, 3-(3-m-amidinophényl-2-triazeno)-8-amino-5-éthyl-6-phénylphénanthridinium] | 202,15 ± 62,92 ng/ml | 0.202 µg/mL | 3,63 ± 0,55 ng/ml | 0.00363 µg/mL | 0 |  | 0 | 1 |  | ≤ 10 fois | 5 | 5 | activité trypanocide inférieure à celles des compositions commerciales ([1]; versus commercial compositions, 48 h): ~20 fois
4 | CC[n+]1c(-c2ccccc2)c2cc(N/N=N/c3cccc(C(=N)N)c3)ccc2c2ccc(N)cc21 [Isométamidium pur, 8-(3-m-amidinophényl-2-triazeno)-3-amino-5-éthyl-6-phénylphénanthridinium] | 9,24 ± 2,13 ng/ml | 0.00924 µg/mL | 0,56 ± 0,05 ng/ml | 0.00056 µg/mL | 0 |  | 0 | 0 |  |  | 0 | 0 | Nombre de souris avec une parasitemia positive ([3]; dose 0.1 mg/kg i.p., 3 mois): 0; Nombre de souris avec une parasitemia positive ([3]; dose 0.1 mg/kg i.p., 4 mois): 5; Nombre de souris avec une parasitemia positive ([3]; dose 1 mg/kg i.p., 4 mois): 5
